According to article PMC6204753, “Non-native autoinducer analogs capable of modulating the SdiA quorum sensing receptor in Salmonella enterica serovar Typhimurium” (Beilstein Journal of Organic Chemistry, 2018):
Several values for one entry are separate records, joined by “and”; a condition that tells them apart may be missing. Identical values can stand only once. Entries after “also recorded” stand apart in the source; their conditions may differ. Like-named read-outs stand apart in the source and are kept apart here.

Columns and labels:
S. Typhimurium SdiA = S. Typhimurium SdiA (Salmonella enterica subsp. enterica serovar Typhimurium, UniProt O66040); experiment: E. coli JLD271-pJN105SE-pSC11SE SdiA reporter, antagonism (β-galactosidase); assay type: cell-based; conditions: for inhibition (%): E. coli reporter, against OOHL at its EC50 (1.5 nM), NA = not active
S. Typhimurium SdiA, sequence (O66040 entry or part of it): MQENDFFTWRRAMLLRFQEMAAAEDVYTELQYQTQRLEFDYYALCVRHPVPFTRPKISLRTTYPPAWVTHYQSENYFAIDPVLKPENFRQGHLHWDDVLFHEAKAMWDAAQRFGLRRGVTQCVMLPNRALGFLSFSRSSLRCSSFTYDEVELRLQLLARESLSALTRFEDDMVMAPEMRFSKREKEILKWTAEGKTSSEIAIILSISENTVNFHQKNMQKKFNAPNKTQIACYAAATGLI
From the text: (§1) Biological assays for SdiA activity. Cell-based reporter strains that rely on detecting the transcriptional activity of LuxR-type receptors are commonly used to assess the activity of exogenous ligands. We used the S. Typhimurium-pJNS25 reporter strain constructed by Smith and Ahmer and also used by Janssens et al. to examine SdiA activity. This strain naturally produces SdiA and contains a reporter plasmid with the promoter region for srgE fused to the luxABCDE operon of V. fischeri (see Experimental section for details of all strains and plasmids). SdiA activity is thus reported by the production of luciferase and resulting bioluminescence. We also prepared an SdiA reporter in E. coli (JLD271-pJN105SE-pSC11SE) to examine S. Typhimurium SdiA activity in an alternate background and with a different reporter gene output. E. coli JLD271 is the sdiA mutant of K-12 E. coli. This reporter construct uses an arabinose inducible promoter to produce S. Typhimurium SdiA and the promoter region for srgE fused to lacZ to report SdiA activity. SdiA activity is then measured using standard β-galactosidase assays. In both reporter strains, signal was normalized to the difference between the positive control (10 μM OOHL) and the negative control (1% DMSO; no compound).
E. coli SdiA reporter assay. The β-galactosidase assay using the E. coli SdiA reporter was performed as reported previously, with minor modifications. The reporter strain was grown 16–18 h overnight in LB, diluted 1:10 in fresh LB medium, and incubated at 37 °C with shaking at 200 rpm until it reached an OD600 of 0.25. Expression of SdiA was induced by the addition of 4 mg/mL arabinose, and the culture was incubated in the presence of compounds (1% DMSO) for 4 h at 37 °C with shaking at 200 rpm. […] A 50 μL aliquot of culture from each well was lysed in 200 μL of Z-buffer and 8 μL of chloroform, and a 100 μL aliquot of this lysate was incubated with 25 μL of 4 mg/mL ONPG for 20 min at 30 °C before reading absorption at 420 nm and 550 nm using a Biotek Synergy 2 plate reader. Non-linear regression curve fits were generated using GraphPad Prism software (version 6) using variable slope (four parameter) dose–response analysis.

SdiA [1] = molecular target: T1, SdiA (Salmonella enterica subsp. enterica serovar Typhimurium, UniProt O66040); experiment: Competition dose–response of OOHL (2) against antagonists in the S. Typhimurium SdiA reporter; assay type: cell-based; conditions: for inhibition profile in competition assay (in words): against OOHL (2)
T1 sequence (O66040 entry or part of it): as above
Protocol: We also submitted compounds 11, R8, and F45 to competition-type assays in the S. Typhimurium SdiA reporter to further characterize their activity profiles. […] The results are shown in Figure 5 (EC50 and maximal activity values listed in Supporting Information File 3).
Salmonella SdiA reporter assay. S. Typhimurium-pJNS25 was grown 16–18 h overnight in LB, diluted 1:100 in fresh LB medium, and then incubated for 6 h at 37 °C with shaking at 200 rpm in the presence of compounds (1% DMSO). For antagonism assays, OOHL (2) at its EC90 (10 nM, 0.1% DMSO) was added to the subculture immediately prior to adding the compound for testing. All compounds were screened at 100 μM and 1 μM in triplicate in agonism and antagonism assays. Raw luminescence values were divided by the OD600 and then normalized to the controls; negative (DMSO) and positive (10 μM OOHL) control samples were included in every assay plate and used to normalize assay results, setting the positive control to 100% and the negative control to 0%. Luminescence was measured using a Biotek Synergy 2 plate reader and Gen 5 software (version 1.05). Dose–response analyses were performed by preparing dilutions of compounds in DMSO and testing each concentration in the agonism or antagonism assays. Competition dose–response assays (data in Figure 5) were performed in the same manner as the antagonism assays, except instead of OOHL being added to the subculture, the antagonist being tested was added. Non-linear regression curve fits were generated using GraphPad Prism software (version 6) using variable slope (four parameter) dose–response analysis.

SdiA [2] = molecular target: T1, SdiA; experiment: S. Typhimurium-pJNS25 SdiA reporter, agonism (luminescence); assay type: cell-based; conditions: for Emax: read-out: activation (%); for EC50: agonism dose–response, read-out: EC50
From the text: as §1, with “E. coli JLD271 is the sdiA mutant of K-12 E. coli.” left out
Salmonella SdiA reporter assay. S. Typhimurium-pJNS25 was grown 16–18 h overnight in LB, diluted 1:100 in fresh LB medium, and then incubated for 6 h at 37 °C with shaking at 200 rpm in the presence of compounds (1% DMSO). […] All compounds were screened at 100 μM and 1 μM in triplicate in agonism and antagonism assays. […] Dose–response analyses were performed by preparing dilutions of compounds in DMSO and testing each concentration in the agonism or antagonism assays. Competition dose–response assays (data in Figure 5) were performed in the same manner as the antagonism assays, except instead of OOHL being added to the subculture, the antagonist being tested was added. Non-linear regression curve fits were generated using GraphPad Prism software (version 6) using variable slope (four parameter) dose–response analysis.

SdiA [3] = molecular target: T1, SdiA; experiment: S. Typhimurium-pJNS25 SdiA reporter, competitive antagonism against 10 nM L-OOHL; assay type: cell-based; conditions: for inhibition at 1 µM: read-out: Antagonism 1 μM Inhibition (%); for inhibition at 100 µM: read-out: Antagonism 100 μM Inhibition (%); for Emax: 100% minus lowest % activity in presence of 10 nM L-OOHL (2)
Procedure, shortened: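 S. Typhimurium-pJNS25 (native SdiA, srgE promoter–luxCDABE) subcultured 1:100 in LB and incubated 6 h at 37 °C, 200 rpm, with compound (1% DMSO); antagonism run against 10 nM L-OOHL. Luminescence normalised between 10 μM OOHL and 1% DMSO controls; triplicates; four-parameter dose–response fits.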

SdiA [4] = molecular target: T1, SdiA; parameters: method as in PMID 17085703; conditions: racemates; cited from earlier work
[5] = maximal activation of the antagonists (partial agonism), Table 3
[6] = 1 μM compound, average ± STD, change in activity from 10 nM 2 (OOHL)
[7] = 100 μM compound, average ± STD, change in activity from 10 nM 2 (OOHL)
[8] = maximal inhibition, read-out: inhibition (%)
[9] = maximal activity (efficacy) from agonism dose–response, 10 μM OOHL = 100%, DMSO = 0%

CCCCCCCCCCCOc1ccc(C(=O)N[C@H]2CCOC2=O)cc1 [R8]
inhibition at 0.0015 µM (S. Typhimurium SdiA): 106% | inhibition (%) (S. Typhimurium SdiA): fully inhibit SdiA activity | inhibition profile in competition assay (in words) (SdiA [1]): competitive SdiA inhibition | EC50 (SdiA [1]; antagonist at 0.1 μM): 1.57 nM | EC50 (SdiA [1]; antagonist at 1 μM): 1.51 nM | EC50 (SdiA [1]; antagonist at 10 μM): 2.52 nM | EC50 (SdiA [1]; antagonist at 100 μM): 10.6 nM | Emax (SdiA [2]; [5]): 24% | inhibition at 1 µM (SdiA [3]; [6]): 18 ± 5% | inhibition at 100 µM (SdiA [3]; [7]): 67 ± 5% | IC50 (SdiA [3]; against 10 nM L-OOHL (EC90)): 44000 nM and 44200 nM | Emax (SdiA [3]; [8]): > 100%

O=C(CCCCCCCCCN=C=S)CC(=O)N[C@H]1CCOC1=O [compound 11, reference compound]
IC50 (S. Typhimurium SdiA): 380 nM | inhibition at 0.0015 µM (S. Typhimurium SdiA): 130% | inhibition (%) (S. Typhimurium SdiA): fully inhibit SdiA activity | inhibition profile in competition assay (in words) (SdiA [1]): both competitive and non-competitive inhibition | EC50 (SdiA [1]; antagonist at 0.1 μM): 72.3 nM | EC50 (SdiA [1]; antagonist at 1 μM): 220 nM | EC50 (SdiA [1]; antagonist at 10 μM): 1310 nM | EC50 (SdiA [1]; antagonist at 100 μM): 4670 nM | Emax (SdiA [2]; [5]): -33% | inhibition at 1 µM (SdiA [3]; [6]): 64 ± 6% | inhibition at 100 µM (SdiA [3]; [7]): 128 ± 1% | IC50 (SdiA [3]; against 10 nM L-OOHL): 318 nM | IC50 (SdiA [3]; against 10 nM L-OOHL (EC90)): 320 nM

CCCCCC(=O)CC(=O)NC1CCOC1=O (racemic) [DL-OOHL, N-(3-oxooctanoyl) DL-homoserine lactone]
EC50 (SdiA [4]): 3 nM

CCCCCCCC(=O)NC1CCOC1=O (racemic) [DL-OHL (C8)]
EC50 (SdiA [4]): 7 nM

CCCCCCCCCC(=O)NC1CCOC1=O (racemic) [DL-DHL (C10)]
EC50 (SdiA [4]): 1000 nM

CCCC(=O)CC(=O)NC1CCOC1=O (racemic) [DL-OHHL (3-oxo-C6)]
EC50 (SdiA [4]): 5 nM

O=C(Cc1ccc(Br)cc1)N[C@@H]1CCOC1=O [B4]
Emax (SdiA [2]; [5]): 52% | inhibition at 1 µM (SdiA [3]; [6]): 41 ± 15% | inhibition at 100 µM (SdiA [3]; [7]): 16 ± 11% | Emax (SdiA [3]; [8]): 50%

CCOC(=O)CNC(=O)Cc1cccc(I)c1 [F45]
inhibition (%) (S. Typhimurium SdiA): failed to display antagonistic activity | inhibition profile in competition assay (in words) (SdiA [1]): non-competitive inhibition profile | EC50 (SdiA [1]; antagonist at 0.1 μM): 1.77 nM | EC50 (SdiA [1]; antagonist at 1 μM): 1.33 nM | EC50 (SdiA [1]; antagonist at 10 μM): 4.11 nM | Emax (SdiA [2]; [5]): 26% | inhibition at 1 µM (SdiA [3]; [6]): 8 ± 10% | inhibition at 100 µM (SdiA [3]; [7]): 92 ± 2% | IC50 (SdiA [3]; against 10 nM L-OOHL (EC90)): 28500 nM | Emax (SdiA [3]; [8]): 87%

O=C(Cc1cccc([N+](=O)[O-])c1)N[C@H]1CCOC1=O [C14]
EC50 (SdiA [2]): 28.3 nM | inhibition at 1 µM (SdiA [3]; [6]): 0% | inhibition at 100 µM (SdiA [3]; [7]): -17 ± 9%

O=C(CC1CCCC1)N[C@H]1CCOC1=O [B12]
EC50 (SdiA [2]): 54.7 nM | Emax (SdiA [2]; [9]): 93% | inhibition at 1 µM (SdiA [3]; [6]): 7 ± 7% | inhibition at 100 µM (SdiA [3]; [7]): 14 ± 9%

O=C(COc1ccc(I)cc1)N[C@H]1CCOC1=O [E22]
EC50 (SdiA [2]): 10.4 nM | Emax (SdiA [2]; [9]): 108% | inhibition at 1 µM (SdiA [3]; [6]): -5 ± 11% | inhibition at 100 µM (SdiA [3]; [7]): -15 ± 8%

CCCCCC(=O)CC(=O)NC1CCSC1=O (racemic) [DL-3-oxo-C8 thiolactone]
EC50 (SdiA [4]): 1 nM

CCCCCCCC(=O)CC(=O)N[C@H]1CCOC1=O [A7]
EC50 (SdiA [2]): 26.6 nM | Emax (SdiA [2]; [9]): 85% | inhibition at 1 µM (SdiA [3]; [6]): -4 ± 19% | inhibition at 100 µM (SdiA [3]; [7]): -2 ± 10%

O=C(CCC1CCCCC1)N[C@H]1CCOC1=O [B11]
EC50 (SdiA [2]): 50.1 nM | Emax (SdiA [2]; [9]): 93% | inhibition at 1 µM (SdiA [3]; [6]): 6 ± 5% | inhibition at 100 µM (SdiA [3]; [7]): 8 ± 14%

O=C(Cc1ccccc1Br)N[C@H]1CCOC1=O [C9]
EC50 (SdiA [2]): 63.5 nM | Emax (SdiA [2]; [9]): 103% | inhibition at 1 µM (SdiA [3]; [6]): 9 ± 8% | inhibition at 100 µM (SdiA [3]; [7]): -48 ± 13%

CCCC(=O)N[C@H]1CCOC1=O [A1, reference compound]
EC50 (SdiA [2]): 578 nM | activation (%) (SdiA [2]; [9]): 100% | Antagonism 1 μM Inhibition (%) (SdiA [3]; [6]): 7 ± 5% | Antagonism 100 μM Inhibition (%) (SdiA [3]; [7]): -10 ± 11%

O=C(CCCOc1cccc(Br)c1)N[C@H]1CCSC1=O [compound 16, reference compound]
inhibition (%) (S. Typhimurium SdiA; 0.0015 µM): failed to display antagonistic activity; also recorded: did not display any activity | activity in the SdiA reporter assay (in words) (SdiA [2]; S. Typhimurium reporter): multimodal, or non-monotonic | Emax (SdiA [2]): 48% | inhibition at 1 µM (SdiA [3]; [6]): 8 ± 14% | inhibition at 100 µM (SdiA [3]; [7]): 84 ± 6% | IC50 (SdiA [3]; against 10 nM L-OOHL (EC90)): 45000 nM | Emax (SdiA [3]; read-out: inhibition (%), maximal inhibition): 89%
